Non-standard residues stand in square brackets, D forms with d. Residues, ends and D or L forms follow the SMILES beside them.

The values that follow come from US10570176B2, “Anti-hepatitis B virus X protein polypeptide pharmaceutical” (priority 2015, dated 2020).

Data set [1] concerns liver cancer HepAD38 cells integrated with HVB DNA. In words: HBeAg secretion ELISA in HepAD38 cells. Format: cell-based. As to the method:
3. Analysis of function of D-TTK001 on HBeAg secreation in liver cancer cells utilizing enzyme-linked immunosorbent assay (ELISA)
(i) Biosafety cabinet was ultraviolet sterilized for 30 min and purged for 30 min; DMEM/F12 (1:1) culture medium containing 15% fetal bovine serum, HepAD38 cells (or HepG2.2.15 cells) were taken out, sterilized with 75% alcohol, and placed in the biosafety cabinet.
(ii) Under aseptic conditions, discard old culture medium, add 3 mL 1×PBS each time, wash twice, add 1 mL 0.25% trypsin, the cells were digested until cell rounding as observed in microscope. Add 5 mL culture medium, dispense cells, count with hemocytometer, and dilute with culture medium to a cell number of 1˜2×10^4 cells/mL.
(iii) Plating 96-well plate. Under aseptic conditions, discard old culture medium, add 3 mL 1×PBS each time, wash twice, add 1 mL 0.05% trypsin, the cells were digested until cell rounding as observed in microscope. Add 10 mL culture medium, dispense cells, count with hemocytometer, and dilute with DMEM/F12(1:1) culture medium, add 100 μL cell suspension into each well to a cell number of 1˜2×10^3 cells/mL. The outer-most wells are not added with cells. Culturing until cell attachment (usually 12 hrs.) and extension. Subsequent tests can be conducted when cells are in good condition.
(2) Applying D-TTK001 (or L-TTK001, i.e., anti-HBxP1#) to liver cancer HepAD38 cells (or HepG2.2.15 cells)
10 mM D-TTK001 (or L-TTK001) mother solution was serially diluted from high concentration to low concentration, added into liver cancer HepAD38 cells (or HepG2.2.15 cells) culture solution to obtain final concentrations of D-TTK001 (or L-TTK001) of 0.1 μM, 1 μM, 10 and 100 μM in respective groups. […]
(3) Applying ELISA to measure HBeAg content in HepAD38 cell (or HepG2.2.15 cell) culture medium
(i) Balancing: place HBeAg assay kit in room temperature for 30 min.
(ii) Preparing solution: dilute concentrated wash liquid for 25 times with purified water.
(iii) Taking out the plate: take out the reaction plate according to experimental requirements (3 wells for negative control, 1 well for positive control, and 1 well for blank control).
(iv) Adding sample: add 75 μL of test samples or negative/positive control into respective wells, gently shake and mix.
(v) Incubating: after sealed with microplate sealer, incubate at 37° C. for 60 min.
(vi) Adding enzyme: add 50 μL of enzyme conjugates into each well except for blank wells, gently shake and mix.
(vii) Incubating: after sealed with microplate sealer, incubate at 37° C. for 30 min.
(viii) Washing plate: remove microplate sealer carefully, manually wash plate for 5 times, pat dry.
(ix) Developing color: add 50 μL each of color-developing agent A and B liquid, gently shake and mix, develop color in dark placed at 37° C. for 30 min.
(x) Stopping: add 50 μL of stop solution into each well, gently shake and mix, measure the result in ten minutes. Set wavelength of microplate reader to 450 nm, measure OD value for each well after zero setting with blank wells.
The invention also investigates the role of the functional variants of the polypeptide and functional fragments thereof. The sequences as shown in the following table are artificially synthesized D-amino acid substituted sequences on the basis of L-TTK001 (i.e., anti-HBxP1#). The polypeptide fragments were artificially synthesized according to the sequences (method as above), and then, above-mentioned ELISA method was adopted to observe the change in the functions of the polypeptides.

Data set [2] in a line: in vivo. The following applies: rat, plasma, iv, 3.5 mg/kg.
Source text: Blood samples were collected and placed the heparinized test tubes according to blood collection times.

As to `CSCC[C@@H](NC(=O)[C@H](NC(=O)[C@@H](C)NC(=O)[C@@H](CO)NC(=O)CN)C(C)C)C(=O)N[C@H](Cc1ccccc1)C(=O)N[C@H](CO)C(=O)N[C@H](CO)C(=O)N[C@H](CCCCN)C(=O)N[C@H](CCC(=O)O)C(=O)N[C@H](CCCNC(=N)N)C(=O)NCC(=O)O` [D-TTK001, Gly-D-Ser-D-Ala-D-Val-D-Met-D-Phe-D-Ser-D-Ser-D-Lys-D-Glu-D-Arg-Gly] (H-G[dS][dA][dV][dM][dF][dS][dS][dK][dE][dR]G-OH; N-terminus and C-terminus assumed), the “Inhibition of HBeAg secretion levels” value in data set [1] (10 μM) is “most significant effect”. The “Minimum effective dose on HBeAg secretion levels” value in data set [1] (0.1, 1, 10, 100 μM) worked out at 0.1 µM. Besides, in data set [2], the C0 came out at 36500 ng/mL and the Vd (in general, the apparent volume that relates the amount in the body to the concentration in plasma or blood) is 0.207 L/kg. In data set [2] (AUC0-t, Mean, rats, intravenous injection 3.5 mg/kg, mean of 6), the exposure AUC(0-t) (as a rule, the area under the concentration-time curve up to a stated or last time point) is 20800 ng·h/mL. Also, the AUC(0-inf) – broadly, total exposure, with the tail of the curve extrapolated – in data set [2] (AUC0-∞, Mean, rats, intravenous injection 3.5 mg/kg, mean of 6) is 24100 ng·h/mL. In addition, in data set [2] (CL, Mean, rats, intravenous injection 3.5 mg/kg, mean of 6), the clearance (commonly the volume of plasma or blood freed of the substance per unit of time) came to 3 mL/min/kg. The maximum concentration (Cmax) (as a rule, the peak of the concentration-time curve) in data set [2] (Cmax, Mean, rats, intravenous injection 3.5 mg/kg, mean of 6) was 35800 ng/mL. Moreover, the half-life (usually how long it takes for the measured level to halve) in data set [2] (t½, Mean, rats, intravenous injection 3.5 mg/kg, mean of 6) is 55.3 min.
